According to PubChem BioAssay (NCI):
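Growth conditions: 96-well plates. Treatment: test compound, 48 hours, 5 concentrations. Analysis: linear interpolation between bracketing concentrations; unreached endpoints set to highest concentration. At the TGI there is no net growth.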

Experiments:
Experiment in all cases: NCI tumour cell line growth inhibition, 48 h
TK-10 renal = tested on: TK-10 renal
SK-MEL-28 melanoma = tested on: SK-MEL-28 melanoma
LXFL 529 NSCLC = tested on: LXFL 529 NSCLC
HT29 colon = tested on: HT29 colon
LOX IMVI melanoma = tested on: LOX IMVI melanoma
OVCAR-3 ovarian = tested on: OVCAR-3 ovarian
DLD-1 colon = tested on: DLD-1 colon
ACHN renal = tested on: ACHN renal
RXF 393 renal = tested on: RXF 393 renal
SW-620 colon = tested on: SW-620 colon
DMS 273 small cell lung = tested on: DMS 273 small cell lung
SF-268 CNS = tested on: SF-268 CNS
HCT-15 colon = tested on: HCT-15 colon
OVCAR-8 ovarian = tested on: OVCAR-8 ovarian
K-562 leukemia = tested on: K-562 leukemia
EKVX NSCLC = tested on: EKVX NSCLC
HOP-62 NSCLC = tested on: HOP-62 NSCLC
HOP-18 NSCLC = tested on: HOP-18 NSCLC
HCC-2998 colon = tested on: HCC-2998 colon
OVCAR-4 ovarian = tested on: OVCAR-4 ovarian
SNB-19 CNS = tested on: SNB-19 CNS
NCI-H23 lung = tested on: NCI-H23 lung
M19-MEL melanoma = tested on: M19-MEL melanoma
M14 melanoma = tested on: M14 melanoma
HOP-92 NSCLC = tested on: HOP-92 NSCLC
SN12C renal = tested on: SN12C renal
SK-OV-3 ovarian = tested on: SK-OV-3 ovarian
NCI-H460 lung = tested on: NCI-H460 lung
786-0 renal = tested on: 786-0 renal
SNB-75 CNS = tested on: SNB-75 CNS
COLO 205 colon = tested on: COLO 205 colon
HL-60(TB) leukemia = tested on: HL-60(TB) leukemia
CAKI-1 renal = tested on: CAKI-1 renal
A549 NSCLC = tested on: A549 NSCLC
KM20L2 colon = tested on: KM20L2 colon
SK-MEL-2 melanoma = tested on: SK-MEL-2 melanoma
HCT-116 colon = tested on: HCT-116 colon
UACC-62 melanoma = tested on: UACC-62 melanoma
NCI-H226 lung = tested on: NCI-H226 lung
MOLT-4 leukemia = tested on: MOLT-4 leukemia
UACC-257 melanoma = tested on: UACC-257 melanoma
KM12 colon = tested on: KM12 colon
A498 renal = tested on: A498 renal
DMS 114 small cell lung = tested on: DMS 114 small cell lung
MALME-3M melanoma = tested on: MALME-3M melanoma
SF-295 CNS = tested on: SF-295 CNS
NCI-H522 lung = tested on: NCI-H522 lung
SK-MEL-5 melanoma = tested on: SK-MEL-5 melanoma
IGROV1 ovarian = tested on: IGROV1 ovarian
SR leukemia = tested on: SR leukemia
OVCAR-5 ovarian = tested on: OVCAR-5 ovarian
SNB-78 CNS = tested on: SNB-78 CNS
U251 CNS = tested on: U251 CNS
SF-539 CNS = tested on: SF-539 CNS
CCRF-CEM leukemia = tested on: CCRF-CEM leukemia
RPMI-8226 leukemia = tested on: RPMI-8226 leukemia
UO-31 renal = tested on: UO-31 renal

**Q.** For `N#CC1(C#N)C(C#N)(C#N)C12CCCCCC2`, which TGI (TK-10 renal) is on record?
**A.** 30.5 µM

**Q.** And the TGI (SK-MEL-28 melanoma)?
**A.** 21.4 µM

**Q.** What about the TGI (LXFL 529 NSCLC) of the same compound?
**A.** 29.8 µM

**Q.** And the TGI (HT29 colon)?
**A.** 34.6 µM

**Q.** What about the TGI (LOX IMVI melanoma) of the same compound?
**A.** 32.3 µM

**Q.** What about the TGI (OVCAR-3 ovarian) of the same compound?
**A.** 29.7 µM

**Q.** And the TGI (DLD-1 colon)?
**A.** 10.3 µM

**Q.** And the TGI (ACHN renal)?
**A.** 23.2 µM

**Q.** What about the TGI (RXF 393 renal) of the same compound?
**A.** 22.9 µM

**Q.** And the TGI (SW-620 colon)?
**A.** 5.29 µM

**Q.** And the TGI (DMS 273 small cell lung)?
**A.** 52.4 µM

**Q.** And the TGI (SF-268 CNS)?
**A.** 48.9 µM

**Q.** What about the TGI (HCT-15 colon) of the same compound?
**A.** 24.2 µM

**Q.** What about the TGI (OVCAR-8 ovarian) of the same compound?
**A.** 26.7 µM

**Q.** What about the TGI (K-562 leukemia) of the same compound?
**A.** > 30.3 µM

**Q.** And the TGI (EKVX NSCLC)?
**A.** 31.9 µM

**Q.** And the TGI (HOP-62 NSCLC)?
**A.** > 89.4 µM

**Q.** And the TGI (HOP-18 NSCLC)?
**A.** 30.3 µM

**Q.** And the TGI (HCC-2998 colon)?
**A.** 35.3 µM

**Q.** And the TGI (OVCAR-4 ovarian)?
**A.** 30 µM

**Q.** What about the TGI (SNB-19 CNS) of the same compound?
**A.** > 87.8 µM

**Q.** What about the TGI (NCI-H23 lung) of the same compound?
**A.** 31.3 µM

**Q.** And the TGI (M19-MEL melanoma)?
**A.** 47.9 µM

**Q.** And the TGI (M14 melanoma)?
**A.** 8.67 µM

**Q.** And the TGI (HOP-92 NSCLC)?
**A.** 29.4 µM

**Q.** What about the TGI (SN12C renal) of the same compound?
**A.** 33.7 µM

**Q.** What about the TGI (SK-OV-3 ovarian) of the same compound?
**A.** > 100 µM

**Q.** What about the TGI (NCI-H460 lung) of the same compound?
**A.** > 66.5 µM

**Q.** And the TGI (786-0 renal)?
**A.** 14.3 µM

**Q.** What about the TGI (SNB-75 CNS) of the same compound?
**A.** > 55.3 µM

**Q.** And the TGI (COLO 205 colon)?
**A.** 33.7 µM

**Q.** And the TGI (HL-60(TB) leukemia)?
**A.** 20.6 µM

**Q.** What about the TGI (CAKI-1 renal) of the same compound?
**A.** 24.6 µM

**Q.** And the TGI (A549 NSCLC)?
**A.** 21.4 µM

**Q.** And the TGI (KM20L2 colon)?
**A.** 32 µM

**Q.** What about the TGI (SK-MEL-2 melanoma) of the same compound?
**A.** 18.4 µM

**Q.** And the TGI (HCT-116 colon)?
**A.** 17.5 µM

**Q.** What about the TGI (UACC-62 melanoma) of the same compound?
**A.** 18.4 µM

**Q.** What about the TGI (NCI-H226 lung) of the same compound?
**A.** 47.5 µM

**Q.** What about the TGI (MOLT-4 leukemia) of the same compound?
**A.** 19.5 µM

**Q.** And the TGI (UACC-257 melanoma)?
**A.** 27.4 µM

**Q.** And the TGI (KM12 colon)?
**A.** 19.3 µM

**Q.** What about the TGI (A498 renal) of the same compound?
**A.** 34.1 µM

**Q.** And the TGI (DMS 114 small cell lung)?
**A.** 43.2 µM

**Q.** What about the TGI (MALME-3M melanoma) of the same compound?
**A.** 31 µM

**Q.** And the TGI (SF-295 CNS)?
**A.** > 57.2 µM

**Q.** And the TGI (NCI-H522 lung)?
**A.** 7.88 µM

**Q.** And the TGI (SK-MEL-5 melanoma)?
**A.** 36.7 µM

**Q.** What about the TGI (IGROV1 ovarian) of the same compound?
**A.** > 68.8 µM

**Q.** What about the TGI (SR leukemia) of the same compound?
**A.** 75.2 µM

**Q.** And the TGI (OVCAR-5 ovarian)?
**A.** 30 µM

**Q.** And the TGI (SNB-78 CNS)?
**A.** 38.5 µM

**Q.** And the TGI (U251 CNS)?
**A.** 20.5 µM

**Q.** And the TGI (SF-539 CNS)?
**A.** 18 µM

**Q.** What about the TGI (CCRF-CEM leukemia) of the same compound?
**A.** 6.89 µM

**Q.** What about the TGI (RPMI-8226 leukemia) of the same compound?
**A.** > 35.1 µM

**Q.** What about the TGI (UO-31 renal) of the same compound?
**A.** 32.8 µM

**Q.** What does the source list for `O=C(c1ccccc1)c1cn(/N=C\c2ccccc2)c(=O)nc1-c1ccccc1`?
**A.** TGI (TK-10 renal): > 100 µM; TGI (SK-MEL-28 melanoma): > 100 µM; TGI (LXFL 529 NSCLC): > 100 µM; TGI (HT29 colon): > 100 µM; TGI (LOX IMVI melanoma): > 100 µM; TGI (OVCAR-3 ovarian): > 100 µM; TGI (DLD-1 colon): > 100 µM; TGI (ACHN renal): > 100 µM; TGI (RXF 393 renal): > 100 µM; TGI (SW-620 colon): > 100 µM; TGI (SF-268 CNS): > 100 µM; TGI (HCT-15 colon): > 100 µM; TGI (OVCAR-8 ovarian): > 100 µM; TGI (K-562 leukemia): > 100 µM; TGI (EKVX NSCLC): > 100 µM; TGI (HOP-62 NSCLC): > 100 µM; TGI (HOP-18 NSCLC): > 100 µM; TGI (HCC-2998 colon): > 100 µM; TGI (OVCAR-4 ovarian): > 100 µM; TGI (SNB-19 CNS): > 100 µM; TGI (NCI-H23 lung): > 100 µM; TGI (M19-MEL melanoma): > 100 µM; TGI (M14 melanoma): > 100 µM; TGI (HOP-92 NSCLC): > 100 µM; TGI (SN12C renal): > 100 µM; TGI (SK-OV-3 ovarian): > 100 µM; TGI (NCI-H460 lung): > 100 µM; TGI (786-0 renal): > 100 µM; TGI (SNB-75 CNS): > 100 µM; TGI (COLO 205 colon): > 100 µM; TGI (A549 NSCLC): > 100 µM; TGI (KM20L2 colon): > 100 µM; TGI (SK-MEL-2 melanoma): > 100 µM; TGI (HCT-116 colon): > 100 µM; TGI (UACC-62 melanoma): > 100 µM; TGI (NCI-H226 lung): > 100 µM; TGI (MOLT-4 leukemia): > 100 µM; TGI (UACC-257 melanoma): > 100 µM; TGI (KM12 colon): > 100 µM; TGI (A498 renal): > 100 µM; TGI (DMS 114 small cell lung): > 100 µM; TGI (MALME-3M melanoma): > 100 µM; TGI (SF-295 CNS): > 100 µM; TGI (NCI-H522 lung): > 100 µM; TGI (SK-MEL-5 melanoma): > 100 µM; TGI (OVCAR-5 ovarian): > 100 µM; TGI (SNB-78 CNS): > 100 µM; TGI (U251 CNS): > 100 µM; TGI (SF-539 CNS): > 100 µM; TGI (CCRF-CEM leukemia): > 100 µM; TGI (UO-31 renal): > 100 µM
